Data taken from patent publication US20140377189A1, “PULMONARY ADMINISTRATION OF ROTIGOTINE” (MAP Pharmaceuticals, Inc., priority 2013, published 2014).

Assay: In situ rotigotine salt screening (precipitate formation in ethanol/HFA 227 solution formulation)
Type: physicochemical
Details: 10% (w/w) ethanol in HFA 227; for Observation Immediate / Observation 1 week at RT / Observation 1 week at 5° C.: 1 mg/mL rotigotine free base with acid; for Observation Immediate: immediately upon preparation; for Observation 1 week at RT: stored 1 week at room temperature; for Observation 1 week at 5° C.: another week at 5° C. after 1 week at RT
Procedure: Rotigotine, bulk drug substance, was purchased from Chemagis (Perrigo API). A stock solution of rotigotine was prepared by dissolving rotigotine particles in ethanol at 10 mg/mL. With 1.5 mL rotigotine stock solution added to formulation bottles, each formulation bottle contained 15 mg rotigotine. For preparation of acid stock solutions, it was assumed that complete reaction or ion-pairing between rotigotine and acid. Based on the molecular weight and number of anions of each acid as listed in Table 1, acids stock solutions were prepared by dissolving the required amount in ethanol.
Each formulation bottle was filed with 1.5 mL of rotigotine stock solution and 1.0 ml, of acid stock solution. The formulation bottles (PET bottles) were then sealed with continuous valves and vortexed for 30 seconds to mix the solution well. Finally, 17.6 g of 1,1,1,2,3,3,3-heptafluoropropane (HFA227 (Mexichem)) to make a final volume of 15 mL of rotigotine formulation. All the bottles were hand shaken for 10 seconds.
All in situ salt screening samples were made as 1 mg/mL of rotigtine free base in 10% (w/w) ethanol in HFA 227. Acids corresponding to the salt forms in Table 1 were added according to the molar ratio with rotigotine for complete reaction. As 1 mg/mL was the minimal required dose at the time of experiment, all formulations were tested at this level to screen out non-solution salt formulations.
These were the rotigotine citrate, fumarate, succinate, sulfate, tartrate, xinafoate salt formulations. […] rotigotine salt formulations were immediately ruled out as the precipitate formation was not desired. All clear solution samples were stored at room temperature (RT) for 1 week. […] These were rotigotine acetate, benzoate and mesylate salt formulations. These 3 rotigotine salt formulations were also ruled out as precipitate formation is not desired. The rest of the samples remained as clear solutions (stable) at after another week at 5° C.
Out of the 7 acids that remained a clear solution after 1 week of storage, rotigotine maleate was selected as the lead candidate and suitable as a stable solution for oral pulmonary aerosol delivery.

Row | Compound | Observation Immediate | Observation 1 week at RT | Observation 1 week at 5° C. | stayed in solution formulation at the minimum required concentration (minimum required concentration 1 mg/mL)
1 | CC(=O)O.CCCN(CCc1cccs1)[C@H]1CCc2c(O)cccc2C1 [Acetate, rotigotine acetate] | solution | red precipitate |  | 
2 | Tartrate | white precipitate |  |  | 
3 | Fumarate | white precipitate |  |  | 
4 | rotigotine citrate | white precipitate |  |  | 
5 | rotigotine glycolate | solution | solution | solution | 
6 | rotigotine propionate | solution | solution | solution | 
7 | CC(O)C(=O)O.CCCN(CCc1cccs1)[C@H]1CCc2c(O)cccc2C1 [Lactate, rotigotine lactate] | solution | solution | solution | 
8 | rotigotine stearate | solution | solution | solution | 
9 | rotigotine pamoate | solution | solution | solution | 
10 | rotigotine maleate | solution | solution | solution | stayed in solution
11 | Benzoate | solution | red precipitate |  | 
12 | O=S(=O)(O)O [Sulfate] | white precipitate |  |  | 
13 | rotigotine palmitate | solution | solution | solution | 
